# Key:
# human AT2R fused to Cb23 = human AT2R fused to Cb23 (Homo sapiens, UniProt P50052); assay: Radioligand binding assay, displacement of 125I-[Sar1, Ile8]-Angiotensin II, hAT2R Cb23; conditions: displacement of 125I-[Sar1, Ile8]-Angiotensin II, human AT2R fused to Cb23, HEK-293 cell membrane preparations; read-out: Binding affinity on hAT2R_Cb23 IC50
# Procedure, shortened: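 Membranes from HEK-293 cells expressing human AT2R fused to Cb23 were incubated with 0.05 nM 125I-[Sar1, Ile8]-Angiotensin II in 100 μL buffer (50 mM Tris, 5 mM MgCl2, 1 mM EDTA, 0.1% BSA, pH 7.4) for one hour at 25° C. Ligands were tested as eight-point dose-response curves in duplicate, with C21 and Angiotensin II as references.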
# human AT1R = human AT1R (Homo sapiens (Human), UniProt P30556); assay: Counterscreen radioligand binding assay, displacement of 125I-[Sar1, Ile8]-Angiotensin II, hAT1R WT; conditions: 125I-[Sar1, Ile8]-Ang II, semi-quantitative score
# Procedure, shortened: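 Membranes from HEK-293 cells expressing human AT1R were incubated for one hour at 25° C, pH 7.4, with 0.05 nM radiolabelled [Sar1, Ile8]-Ang II and test ligand. Bound radioactivity was collected on PEI-soaked filters, with 10 μM unlabelled [Sar1]-Ang II defining non-specific binding. Results are percent displacement at 1 μM and […], or IC50 from eight-point duplicate curves.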
# [1] = Caco-2 permeability assay; format: in vitro ADME; conditions: human
# Protocol: Caco-2 cells were cultured in 75 cm^2 flasks to 80-90% confluence according to the ATCC and Millipore recommendations (Arena A. et al., 2003) in humidified atmosphere at 37° C. and 5% CO2. Cells were detached with Trypsin/EDTA solution and resuspended in the cell culture medium to a final concentration of 2×10^5 cells/ml. 500 μl of the cell suspension was added to each well of HTS 24-Multiwell Insert System and 1000 μl of prewarmed complete medium was added to each well of the feeder-plate. Caco-2 cells were incubated in Multiwell Insert System for 21 days before the transport experiments. The medium in filter plate and feeder tray was refreshed every other day. After 21 days of the cell growth, the integrity of the monolayer was verified by measuring the transepithelial electrical resistance (TEER) for every well using the Millicell-ERS system ohm meter. The final TEER values were within the range 150-600 Ω×cm^2 (Srinivasan B. et al., 2015) as required for the assay conditions. 24-well insert plate was removed from its feeder plate and placed in a new sterile 24-well transport analysis plate. The inserts were washed with PBS after medium aspiration. To determine the rate of compounds transport in apical (A)-to-basolateral (B) direction, 300 μL of the test compound dissolved in transport buffer at 10 μM (HBSS, 25 mM HEPES, pH=7.4) was added into the filter wells; 1000 μL of buffer (HBSS, 25 mM HEPES, pH=7.4) was added to transport analysis plate wells. Propranolol, Atenolol, Quinidine and Digoxin were used as reference compounds. The plates were incubated for 90 min at 37° C. under continuous shaking at 50 rpm. 75 μL aliquots were taken from the donor and receiver compartments for LC-MS/MS analysis. All samples were mixed with 2 volumes of acetonitrile followed by protein sedimentation by centrifuging at 10000 rpm for 10 minutes. Supernatants were analyzed using the HPLC system coupled with tandem mass spectrometer. The apparent permeability (Papp) was calculated for Caco-2 permeability assay using the following equation:
# • VA=volume of transport buffer in acceptor well • Area=surface area of the insert (equals to effective growth area of the insert −0.31 sq.cm) • Time=time of the assay • [drug]acc=concentration of test compound in acceptor well • [drug]initial,d=initial concentration of test compound in a donor well • Papp is expressed in 10^−6 cm/sec.
# The % recovery can be useful in interpreting the Caco-2 data. If the recovery is very low, this may indicate poor solubility, binding of the compound to the test plate materials, metabolism by the Caco-2 cells, or accumulation of the compound in the cell monolayer. The % recovery was calculated using the following equation:
# • Vacc=volume of compound solution in acceptor well […] • Vd=volume of compound solution in […] • Cacc=concentration of test compound in acceptor well (μM) • Cinitial,d=initial concentration of test compound in a donor well (μM)
# [2] = Caco-2 permeability assay; format: in vitro ADME; conditions: human, pH 7.4; Caco-2, BA
# Chain of human AT1R (P30556 whole entry): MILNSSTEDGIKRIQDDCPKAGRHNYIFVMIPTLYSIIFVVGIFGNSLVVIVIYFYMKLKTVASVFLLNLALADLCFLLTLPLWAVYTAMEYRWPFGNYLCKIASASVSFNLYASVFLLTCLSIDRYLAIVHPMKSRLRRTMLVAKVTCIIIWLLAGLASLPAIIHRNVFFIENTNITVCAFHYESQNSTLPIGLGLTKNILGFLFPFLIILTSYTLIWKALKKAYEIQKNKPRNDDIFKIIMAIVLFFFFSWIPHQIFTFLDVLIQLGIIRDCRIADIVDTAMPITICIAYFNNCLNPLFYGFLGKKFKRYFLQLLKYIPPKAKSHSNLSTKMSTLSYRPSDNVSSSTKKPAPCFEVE
# Chain of human AT2R fused to Cb23 (P50052 whole entry, looked up, the tested form may be a part): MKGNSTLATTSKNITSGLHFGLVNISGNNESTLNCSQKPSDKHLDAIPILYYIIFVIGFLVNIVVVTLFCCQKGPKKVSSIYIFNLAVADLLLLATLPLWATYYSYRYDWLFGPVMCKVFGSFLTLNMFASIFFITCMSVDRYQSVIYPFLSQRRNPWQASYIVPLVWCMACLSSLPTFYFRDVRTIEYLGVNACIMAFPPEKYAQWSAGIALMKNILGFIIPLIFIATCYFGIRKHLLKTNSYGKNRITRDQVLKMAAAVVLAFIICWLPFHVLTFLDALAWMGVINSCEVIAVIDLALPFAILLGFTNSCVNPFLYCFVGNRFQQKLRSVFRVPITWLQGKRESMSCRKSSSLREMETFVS
smiles,measurement,setting,value
CCc1cc(CC(C)C)cc(N2CCN(Cc3cccnn3)CC2)c1-c1nn[nH]n1 [Compound A-168],IC50,human AT2R fused to Cb23,17.7 nM
same,inhibition at 1 µM,"human AT1R; compound at 1 μM, read-out: % Displaced radioligand at 1 μM",< 30%
same,inhibition at 10 µM,"human AT1R; compound at 10 μM, read-out: % Displaced radioligand at 10 μM",< 30%
same,"efflux ratio at 90 min, 10 µM","[1]; Caco-2, pH 7.4",11.3
same,"recovery at 90 min, 10 µM","[1]; Caco-2, pH 7.4",97%
same,"Papp A→B at 90 min, 10 µM","[1]; pH 7.4, Caco-2, AB",1.3 ×10⁻⁶ cm/s
same,"Papp B→A at 90 min, 10 µM",[2],14.7 ×10⁻⁶ cm/s

# From patent US20240368133A1, “Compounds for the Treatment of Pain, in Particular, Neuropathic Pain, and/or Other Diseases or Disorders that are Associated with AT2R and/or AT2R Mediated Signaling” (Confo Therapeutics N.V., priority 2021, published 2024)
